Results published in patent US4409207A, “Derivatives of clavulanic acid, a process for their preparation and their use” (Beecham Group Limited, priority 1978, dated 1983).
Values belong to the compound of their own block, whether it stands above or below them.

Legend:
Staph. Russell = assay: standard MIC test of ampicillin with synergist, Staph. Russell; format: cell-based
Text: (§1) The synergist referred to hereinafter is sodium 9-O-carboxamidomethylclavulanate.

Kleb. E 70 = assay: standard MIC test of ampicillin with synergist, Kleb. E 70; format: cell-based
Text: as §1

Proteus C889 = assay: standard MIC test of ampicillin with synergist, Proteus C889; format: cell-based; conditions: 0 μg/ml synergist (ampicillin alone)
Text: as §1

E. Coli JT 39 = assay: standard MIC test of ampicillin with synergist, E. Coli JT 39; format: cell-based
Text: as §1

[1] = tested on: Staph. Russell, Kleb. E 70, Proteus C889, E. Coli JT 39; assay: standard MIC tests, synergy statement; format: cell-based; conditions: with ampicillin
Text: as §1

E. coli JT 39 infection = E. coli JT 39 infection in mice, CD50 of amoxycillin with subcutaneous synergist; format: in vivo
[2] = toxic effects during testing at therapeutic doses in animals; format: in vivo
[3] = 0 μg/ml synergist (ampicillin alone)
[4] = synergist alone, obtained in separate test

MIC of Ampicillin (Staph. Russell; [3]): > 32 µg/mL | MIC of Ampicillin (Kleb. E 70; [3]): > 32 µg/mL | MIC of Ampicillin (Proteus C889): > 32 µg/mL | MIC of Ampicillin (E. Coli JT 39; [3]): > 32 µg/mL
Compound: CC1(C)S[C@@H]2[C@H](NC(=O)[C@H](N)c3ccccc3)C(=O)N2[C@H]1C(=O)O [Ampicillin, reference compound]

Compound: NC(=O)COC/C=C1\O[C@@H]2CC(=O)N2[C@H]1C(=O)O [Example 2, Sodium 9-O-carboxamidomethylclavulanate]
MIC (Staph. Russell; [4]): 31 µg/mL | synergy in standard MIC tests [1]: demonstrated synergy | effect of the compound alone on infection (E. coli JT 39 infection; compound of this example alone at 2 mg/kg×2): no effect | MIC (Kleb. E 70; [4]): 31 µg/mL | MIC (E. Coli JT 39; Escherichia coli, synergist alone, obtained in separate test): 31 µg/mL | overt toxic symptoms ([2]; in vivo): No overt toxic symptoms were observed | animal deaths due to toxic effects ([2]; therapeutic doses): did not cause animal deaths due to toxic effects

Compound: CC1(C)S[C@@H]2[C@H](NC(=O)[C@H](N)c3ccc(O)cc3)C(=O)N2[C@H]1C(=O)O [amoxycillin, reference compound]
CD50 of amoxycillin (E. coli JT 39 infection; amoxycillin alone): greater than 500 mg/kg×2
